One series has as its target XIAP-BIR3 (Homo sapiens, UniProt P98170). The series can be described thus: fluorescence polarization-based competition assay. Details: X-IAP BIR3 (amino acids residues 241-356); made in house; host or cells: Escherichia coli BL21 (DE3). The series is classed as binding. The protocol: (§1) The apparent Kd values can be determined from the EC50 values.
(§2) The apparent Kd values were determined from the EC50 values. […] Samples were read after a 10-minute incubation.

Another series addresses T1, ML-IAP-BIR (Homo sapiens, UniProt Q96CA5).
T1 construct: made in house; host or cells: Escherichia coli BL21 (DE3)
T1 sequence (Q96CA5 63-179): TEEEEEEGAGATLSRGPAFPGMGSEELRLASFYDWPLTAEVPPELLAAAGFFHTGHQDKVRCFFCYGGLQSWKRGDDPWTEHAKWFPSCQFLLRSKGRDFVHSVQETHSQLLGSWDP
Put plainly: fluorescence polarization-based competition assay. The series is classed as binding. The protocol: as §1, §2

In the next series the target is T2, XIAP-BIR2 (Homo sapiens, UniProt P98170, C202A/C213G).
T2 construct: X-IAP BIR2 (amino acid residues 124-240 with mutations C202A and C213G); made in house; host or cells: Escherichia coli BL21 (DE3)
The series can be described thus: fluorescence polarization-based competition assay. Conditions: Table 3, positional scanning. The series is classed as binding. The protocol:
as §1, §2

Series [1] concerns the molecule itself. The series can be described thus: crystal structure, self-association.

T2 sequence (P98170 124-240 C202A/C213G): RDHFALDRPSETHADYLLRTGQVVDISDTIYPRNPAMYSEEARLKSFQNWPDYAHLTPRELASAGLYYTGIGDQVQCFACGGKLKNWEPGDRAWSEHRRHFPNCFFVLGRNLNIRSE
Sequence of XIAP-BIR3 (P98170 241-356): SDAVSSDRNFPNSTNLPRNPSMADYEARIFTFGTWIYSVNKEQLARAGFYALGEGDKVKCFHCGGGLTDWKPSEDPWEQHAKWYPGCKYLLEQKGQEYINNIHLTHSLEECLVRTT

With `CC(C)[C@H](NC(=O)[C@H](C)N)C(=O)N1CCC[C@H]1C(=O)N[C@@H](Cc1ccc(S(=O)(=O)O)cc1)C(=O)N[C@@H](C)C(=O)N[C@@H](CCC(N)=O)C(=O)N[C@@H](CCCCN)C(=O)N[C@@H](CO)C(=O)N[C@@H](CCC(=O)O)C(=O)O` [AVPX2AQKSE], on XIAP-BIR3, the Ki was determined as 8.5 µM. Turning to `CC(C)[C@H](NC(=O)[C@H](C)N)C(=O)N1CCC[C@H]1C(=O)N[C@@H](CC1CCCC1)C(=O)N[C@@H](C)C(=O)N[C@@H](CCC(N)=O)C(=O)N[C@@H](CCCCN)C(=O)N[C@@H](CO)C(=O)N[C@@H](CCC(=O)O)C(=O)O` [AVPX7AQKSE], the Ki on ML-IAP-BIR came to 7.9 µM; on XIAP-BIR2 it was 229 µM.

For the molecule `CC(C)[C@H](NC(=O)[C@H](C)N)C(=O)N1CCC[C@H]1C(=O)N[C@@H](Cc1ccc(I)cc1)C(=O)N[C@@H](C)C(=O)N[C@@H](CCC(N)=O)C(=O)N[C@@H](CCCCN)C(=O)N[C@@H](CO)C(=O)N[C@@H](CCC(=O)O)C(=O)O` [AVPX10AQKSE], the Ki is 1 µM on XIAP-BIR3, 0.45 µM at ML-IAP-BIR and 27.7 µM at XIAP-BIR2.

B1: ML-IAP-BIR (other, human, UniProt Q96CA5 63-179, looked up)
chain: T1 sequence (Q96CA5 63-179)
notes: range 63-179; Expressed in E. coli BL21(DE3) from pET15b-MLIAPBIR; also called BIR domain of ML-IAP; not shown: possible N-terminal tag from the pET15b vector (purified on Ni-agarose)
With B1, in series [1], the binding result is listed as “binds”.

(Values after EP1590666B1, “COMPOSITIONS AND METHODS FOR ENHANCING APOPTOSIS” (GENENTECH, INC., priority 2003, dated 2004).)
